In patent publication US9296725B2, “Heterocyclyl pyrimidine analogues as TYK2 inhibitors” (Cellzome Limited, priority 2012, dated 2016):
Read-outs that look alike come from different tables or passages of the source.

Tests used:
TYK2 = molecular target: T1, TYK2 (Homo sapiens, UniProt P29597); assay: Kinobeads assay, TYK2 (competition binding in mixed Molt4/Ramos cell lysate, dot blot detection)
T1 construct: endogenous in cells; host or cells: Molt4 (ATCC CRL-1582) and Ramos (ATCC CRL-1596), mixed lysate 1:2
Method in brief: (§1)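 Competition binding: compound dilutions (1:3 series, 9 steps) plus immobilized aminopyrido-pyrimidine beads incubated 3 h in the cold with mixed Molt4/Ramos lysate (1:2) at 10 mg/mL protein. Bead-bound JAK2/TYK2 eluted and quantified by antibody dot blot with infrared detection; IC50 from dose-response curves.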

JAK2 = molecular target: T2, JAK2 (Homo sapiens, UniProt O60674); assay: Kinobeads assay, JAK2 (competition binding in mixed Molt4/Ramos cell lysate, dot blot detection); conditions: read-out: JAK2 Band (Kinobeads assay potency, IC50)
T2 construct: endogenous in cells; host or cells: Molt4 (ATCC CRL-1582) and Ramos (ATCC CRL-1596), mixed lysate 1:2
Method in brief: as §1

[1] = Kinobeads assay, Molt4/Ramos lysate, read-out: TYK2 Band (Kinobeads assay potency, IC50)

T2 sequence (O60674 whole entry): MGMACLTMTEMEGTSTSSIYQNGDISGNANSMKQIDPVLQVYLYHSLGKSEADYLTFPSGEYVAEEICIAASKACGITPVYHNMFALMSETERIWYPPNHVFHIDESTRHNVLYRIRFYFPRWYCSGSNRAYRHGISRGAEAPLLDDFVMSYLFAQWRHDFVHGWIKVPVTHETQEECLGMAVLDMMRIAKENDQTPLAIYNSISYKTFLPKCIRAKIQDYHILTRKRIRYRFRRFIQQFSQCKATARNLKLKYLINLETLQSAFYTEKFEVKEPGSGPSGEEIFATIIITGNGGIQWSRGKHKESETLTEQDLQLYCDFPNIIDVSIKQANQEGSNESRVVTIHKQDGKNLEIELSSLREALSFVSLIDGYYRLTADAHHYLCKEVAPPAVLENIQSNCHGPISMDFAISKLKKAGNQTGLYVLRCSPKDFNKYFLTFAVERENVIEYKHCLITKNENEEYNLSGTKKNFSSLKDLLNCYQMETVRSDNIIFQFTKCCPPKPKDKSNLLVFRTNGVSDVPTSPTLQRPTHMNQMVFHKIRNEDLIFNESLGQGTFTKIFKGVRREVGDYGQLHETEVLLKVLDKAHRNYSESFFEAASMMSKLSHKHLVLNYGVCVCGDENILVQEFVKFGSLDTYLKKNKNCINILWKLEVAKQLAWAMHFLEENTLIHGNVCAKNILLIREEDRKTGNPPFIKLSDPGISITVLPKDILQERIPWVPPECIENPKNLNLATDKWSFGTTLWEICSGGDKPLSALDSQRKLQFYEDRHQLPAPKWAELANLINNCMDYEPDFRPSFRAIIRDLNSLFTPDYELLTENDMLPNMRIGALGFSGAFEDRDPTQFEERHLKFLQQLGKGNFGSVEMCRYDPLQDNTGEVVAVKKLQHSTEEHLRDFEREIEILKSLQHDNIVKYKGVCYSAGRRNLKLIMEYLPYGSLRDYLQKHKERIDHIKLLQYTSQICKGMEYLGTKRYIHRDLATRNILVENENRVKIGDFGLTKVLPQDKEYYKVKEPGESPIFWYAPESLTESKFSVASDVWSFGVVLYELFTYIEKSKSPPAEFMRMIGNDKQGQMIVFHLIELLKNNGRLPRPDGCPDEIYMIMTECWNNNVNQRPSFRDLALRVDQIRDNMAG
T1 sequence (P29597 whole entry): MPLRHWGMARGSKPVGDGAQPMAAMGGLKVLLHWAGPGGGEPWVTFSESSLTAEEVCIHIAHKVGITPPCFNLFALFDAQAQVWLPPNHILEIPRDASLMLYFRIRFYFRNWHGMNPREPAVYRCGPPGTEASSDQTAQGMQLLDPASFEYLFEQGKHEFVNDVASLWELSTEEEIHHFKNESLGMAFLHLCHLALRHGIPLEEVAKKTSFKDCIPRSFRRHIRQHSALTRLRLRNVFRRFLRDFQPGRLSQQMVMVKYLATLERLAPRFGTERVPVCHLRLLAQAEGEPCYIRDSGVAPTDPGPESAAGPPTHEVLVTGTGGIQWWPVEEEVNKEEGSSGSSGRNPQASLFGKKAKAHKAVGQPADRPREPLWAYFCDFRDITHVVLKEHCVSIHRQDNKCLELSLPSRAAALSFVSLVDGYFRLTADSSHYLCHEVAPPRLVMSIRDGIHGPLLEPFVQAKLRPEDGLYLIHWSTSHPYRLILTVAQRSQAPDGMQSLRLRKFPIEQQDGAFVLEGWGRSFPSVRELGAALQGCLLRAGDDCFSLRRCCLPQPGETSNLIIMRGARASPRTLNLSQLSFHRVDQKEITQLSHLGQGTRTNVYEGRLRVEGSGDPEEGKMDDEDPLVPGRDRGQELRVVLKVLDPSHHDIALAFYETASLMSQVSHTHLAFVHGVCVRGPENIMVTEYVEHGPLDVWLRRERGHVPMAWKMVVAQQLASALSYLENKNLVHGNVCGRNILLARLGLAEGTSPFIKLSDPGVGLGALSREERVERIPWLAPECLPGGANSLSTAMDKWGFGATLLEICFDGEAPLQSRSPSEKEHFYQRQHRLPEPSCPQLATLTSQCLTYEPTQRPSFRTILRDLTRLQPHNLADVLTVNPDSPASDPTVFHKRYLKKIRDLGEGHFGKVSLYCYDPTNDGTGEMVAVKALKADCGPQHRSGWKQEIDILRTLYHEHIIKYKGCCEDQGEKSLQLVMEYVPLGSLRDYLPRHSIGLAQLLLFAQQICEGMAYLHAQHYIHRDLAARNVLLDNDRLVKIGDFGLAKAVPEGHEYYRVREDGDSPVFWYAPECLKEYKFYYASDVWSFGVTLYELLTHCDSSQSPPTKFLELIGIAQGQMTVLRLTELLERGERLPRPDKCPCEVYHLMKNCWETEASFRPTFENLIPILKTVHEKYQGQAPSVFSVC

Structure (SMILES)	IC50 (TYK2; [1]) [µM]	IC50 (JAK2) [µM]	IC50 (TYK2; read-out: TYK2 IC50) [µM]
CS(=O)(=O)c1ccc(F)c(CNc2nc(Nc3cn[nH]c3)ncc2Cl)c1 [Example I-98]	0.01 to 0.1	0.1 to 1	
CNC(=O)Cn1cc(Nc2ncc(F)c(NCc3c(Cl)cccc3Cl)n2)cn1 [Example I-329]	0.01 to 0.1	1 to 10	
CN(C)C(=O)Cn1cc(Nc2ncc(F)c(NCc3cccc(OC(F)F)c3)n2)cn1 [Example I-14]	0.01 to 0.1	1 to 10	
CC1(C)CN(C(=O)Cn2cc(Nc3ncc(F)c(NCc4c(F)cc(F)cc4F)n3)cn2)CCO1 [Example I-39]	0.01 to 0.1	1 to 10	
CCOC(=O)Cn1cc(Nc2ncc(F)c(NCc3c(F)ccc(OC)c3F)n2)cn1 [Example I-53]	0.01 to 0.1	1 to 10	
Cn1ncnc1Cn1cc(Nc2ncc(Cl)c(NCc3ccccc3)n2)cn1 [Example I-250]	1 to 10	1 to 10	
CC(C)NC(=O)Cn1cc(Nc2ncc(F)c(NCc3c(F)ccc(F)c3F)n2)cn1 [Example I-455]	≤ 0.01	1 to 10	
Cn1cc(Nc2nccc(NCc3c(F)cccc3F)n2)cn1 [Example I-312]	0.1 to 1	> 10	
C[C@H](CO)NC(=O)Cn1cc(Nc2nccc(NCc3c(F)cc(F)cc3F)n2)cn1 [Example I-456]	0.01 to 0.1	1 to 10	
Cc1cnc(Nc2cnn(CC(F)(F)F)c2)nc1NCc1cc(F)ccc1F [Example I-353]	0.1 to 1	1 to 10	
N#C[C@@H]1CCCN1C(=O)Cn1cc(Nc2ncc(Cl)c(NCc3ccccc3)n2)cn1 [Example I-272]	0.1 to 1	1 to 10	
CNC(=O)Cn1cc(Nc2ncc(Cl)c(NCc3ccccc3)n2)cn1 [Example I-195]	0.1 to 1	1 to 10	
C[C@H]1COCCN1C(=O)Cn1cc(Nc2nccc(NCc3c(F)cc(F)cc3F)n2)cn1 [Example I-52]	0.01 to 0.1	1 to 10	
CC(NC(=O)Cn1cc(Nc2nccc(NCc3c(F)cc(F)cc3F)n2)cn1)C1CCOC1 (centres unmarked) [Example I-105]	0.01 to 0.1	> 10	
CC(C)NC(=O)Cn1cc(Nc2nccc(NCc3c(F)cc(F)cc3F)n2)cn1 [Example I-50]	0.01 to 0.1	1 to 10	< 0.1
Cc1cnc(Nc2cnn(CC(=O)N[C@@H](C)CO)c2)nc1NCc1c(F)cc(F)cc1F [Example I-36]	≤ 0.01	0.1 to 1	
CN(C)C(=O)Cn1cc(Nc2ncc(F)c(NCc3c(F)cc(F)cc3F)n2)cn1 [Example I-18]	0.01 to 0.1	1 to 10	
CC(C)(C)OC(=O)N1CC2(CN(C(=O)Cn3cc(Nc4ncc(Cl)c(NCc5ccccc5)n4)cn3)C2)C1 [Example I-220]	0.1 to 1	1 to 10	
COc1ccc(S(C)(=O)=O)cc1CNc1nc(Nc2cnn(CCO)c2)ncc1F [Example I-88]	0.01 to 0.1	0.1 to 1	

Structure (SMILES)	IC50 (TYK2; [1]) [µM]	IC50 (JAK2) [µM]	IC50 (TYK2; read-out: TYK2 IC50) [µM]
Fc1ccc(F)c(CNc2nc(Nc3cnn(C(F)F)c3)ncc2Cl)c1 [Example I-223]	0.1 to 1	0.1 to 1	
CNC(=O)Cn1cc(Nc2ncc(Cl)c(NCc3cc(Br)cc(F)c3F)n2)cn1 [Example I-262]	0.1 to 1	0.1 to 1	
OCCn1cc(Nc2ncc(Cl)c(NCc3cc(C(F)(F)F)ccc3F)n2)cn1 [Example I-281]	0.01 to 0.1	0.1 to 1	
CN(C)C(=O)Cn1cc(Nc2ncc(Cl)c(NCc3ccccc3)n2)cn1 [Example I-217]	0.1 to 1	1 to 10	
CC(C)NC(=O)Cn1cc(Nc2nccc(NCc3c(Cl)ccc(F)c3Cl)n2)cn1 [Example I-119]	0.01 to 0.1	> 10	
Cc1cnc(Nc2cnn(CC(N)=O)c2)nc1NCc1ccccc1S(C)(=O)=O [Example I-434]	0.1 to 1	1 to 10	
OCCn1cc(Nc2ncc(Cl)c(NCc3c(F)cc(F)cc3F)n2)cn1 [Example I-15]	0.01 to 0.1	0.1 to 1	
O=C(Cn1cc(Nc2ncc(Cl)c(NCc3ccccc3)n2)cn1)N1CCNCC1 [Example I-187]	0.01 to 0.1	0.1 to 1	
OCCn1cc(Nc2ncc(F)c(NCc3cc(F)ccc3F)n2)cn1 [Example I-203]	≤ 0.01	0.01 to 0.1	
O=C(Cn1cc(Nc2ncc(Cl)c(NCc3cncc(F)c3)n2)cn1)N1CCOCC1 [Example I-339]	0.01 to 0.1	0.1 to 1	
C[C@@H](C(N)=O)n1cc(Nc2ncc(Cl)c(NCc3ccccc3)n2)cn1 [Example I-291]	0.1 to 1	1 to 10	
O=C(Cn1cc(Nc2ncc(F)c(NCc3c(F)cc(F)cc3F)n2)cn1)NCC(F)(F)F [Example I-252]	0.01 to 0.1	> 10	
CS(=O)(=O)NCc1cccc(CNc2nc(Nc3cnn(CC(=O)N4CCC[C@H]4C#N)c3)ncc2Cl)c1 [Example I-400]	0.1 to 1	1 to 10	
O=C(Cn1cc(Nc2ncc(Cl)c(NCc3cccnc3)n2)cn1)N1CCOCC1 [Example I-337]	0.1 to 1	1 to 10	
Cn1cc(Nc2ncc(F)c(NCc3c(F)cc(F)cc3F)n2)cn1 [Example I-374]	0.01 to 0.1	1 to 10	
CNC(=O)Cn1cc(Nc2ncc(Cl)c(NCc3ccccc3S(=O)(=O)N(C)C)n2)cn1 [Example I-356]	0.1 to 1	0.1 to 1	
Fc1cccc(F)c1CNc1nc(Nc2cnn(CC(F)F)c2)ncc1Cl [Example I-469]	0.1 to 1	0.1 to 1	
OCCn1cc(Nc2ncc(Cl)c(NCc3c(F)cccc3-c3cn[nH]c3)n2)cn1 [Example I-265]	0.1 to 1	1 to 10	
Cc1scnc1Cn1cc(Nc2ncc(Cl)c(NCc3c(F)cccc3F)n2)cn1 [Example I-484]	0.1 to 1	0.1 to 1	

Structure (SMILES)	IC50 (TYK2; [1]) [µM]	IC50 (JAK2) [µM]	IC50 (TYK2; read-out: TYK2 IC50) [µM]
CC(CO)n1cc(Nc2ncc(Cl)c(NCc3ccccc3)n2)cn1 (centres unmarked) [Example I-361]	0.1 to 1	0.1 to 1	
CN(CC#N)C(=O)Cn1cc(Nc2ncc(Cl)c(NCc3ccccc3)n2)cn1 [Example I-238]	0.1 to 1	1 to 10	
NS(=O)(=O)c1ccc(F)c(CNc2nc(Nc3cnn(CCO)c3)ncc2Cl)c1 [Example I-226]	0.01 to 0.1	1 to 10	
CC(C(N)=O)n1cc(Nc2ncc(Cl)c(NCc3ccccc3)n2)cn1 (centres unmarked) [Example I-285]	0.1 to 1	1 to 10	
CNC(=O)Cn1cc(Nc2ncc(Cl)c(NCc3c(F)ccc(C)c3F)n2)cn1 [Example I-284]	0.01 to 0.1	1 to 10	
CNC(=O)Cn1cc(Nc2ncc(Cl)c(NCc3cc(C(F)(F)F)ccc3Cl)n2)cn1 [Example I-280]	0.01 to 0.1	0.1 to 1	
Cc1cnc(Nc2cnn(CC(=O)N3CCOCC3)c2)nc1NCc1c(F)cccc1F [Example I-305]	≤ 0.01	0.1 to 1	
OCCn1cc(Nc2ncc(F)c(NCc3cccc(F)c3F)n2)cn1 [Example I-170]	0.1 to 1	1 to 10	
O=C(O)Cn1cc(Nc2ncc(Cl)c(NCc3c(F)cccc3F)n2)cn1 [Example I-165]	0.01 to 0.1	1 to 10	
CC(C)(C)OC(=O)N1CC2CCC1CN2C(=O)Cn1cc(Nc2ncc(Cl)c(NCc3ccccc3)n2)cn1 (centres unmarked) [Example I-197]	0.1 to 1	1 to 10	
Cc1cnc(Nc2cnn(CCO)c2)nc1NCc1c(F)cc(F)cc1F [Example I-303]	0.01 to 0.1	0.1 to 1	
O=C(Cn1cc(Nc2nccc(NCc3c(F)cccc3Cl)n2)cn1)NC1CC1 [Example I-139]	≤ 0.01	1 to 10	
O=C(Cn1cc(Nc2nccc(NCc3c(F)cc(F)cc3F)n2)cn1)NCC(F)(F)F [Example I-86]	0.01 to 0.1	> 10	
COc1cc(F)c(CNc2ccnc(Nc3cnn(CC(=O)NC(C)C)c3)n2)c(F)c1 [Example I-64]	0.01 to 0.1	> 10	
CNC(=O)Cn1cc(Nc2ncc(Cl)c(NCc3cc(C(F)(F)F)ccc3F)n2)cn1 [Example I-279]	0.01 to 0.1	0.1 to 1	
[2H]C([2H])(O)C([2H])([2H])n1cc(Nc2ncc(Cl)c(NCc3ccccc3)n2)cn1 [Example I-231]	0.1 to 1	1 to 10	
Cn1cc(Nc2nccc(NCc3c(F)cc(F)cc3F)n2)cn1 [Example I-310]	0.1 to 1	> 10	
Cc1cnc(Nc2cnn(CC(F)F)c2)nc1NCc1cccc(S(C)(=O)=O)c1 [Example I-466]	0.1 to 1	1 to 10	
